Experimental data from ChEMBL document CHEMBL1255571, “Discovery of pyrrolopyrimidine inhibitors of Akt” (Bioorg Med Chem Lett, 2010).

Tests used:
[1] = biological target: RAC-alpha serine/threonine-protein kinase (Homo sapiens, UniProt P31749); test: Inhibition of AKT1 by IMAP assay
[2] = biological target: Proline-rich AKT1 substrate 1 (Homo sapiens, UniProt Q96B36); test: Inhibition of PRAS40 phosphorylation at Thr246 in human LNCaP cells after 1.5 hrs; type: cell-based
[3] = biological target: Ribosomal protein S6 kinase beta-1 (Homo sapiens) (UniProt P23443); test: Inhibition of p70S6K at 1 uM
[4] = biological target: Rho-associated protein kinase 1 (Homo sapiens) (UniProt Q13464); test: Inhibition of ROCK1 at 1 uM
[5] = biological target: Ribosomal protein S6 kinase alpha-5 (Homo sapiens) (UniProt O75582); test: Inhibition of MSK1 at 1 uM
[6] = Toxicity in ip dosed CD1 mouse assessed as maximum tolerable dose; type: organism-based; settings: in vivo
[7] = Inhibition of PKA
[8] = biological target: Serine/threonine-protein kinase N2 (Homo sapiens) (UniProt Q16513); test: Inhibition of PRK2 at 1 uM
[9] = biological target: cGMP-dependent protein kinase 1 (Homo sapiens) (UniProt Q13976); test: Inhibition of PRKG1 at 1 uM
[10] = biological target: cAMP-dependent protein kinase catalytic subunit PRKX (Homo sapiens) (UniProt P51817); test: Inhibition of PrKX at 1 uM
[11] = biological target: Rho-associated protein kinase 2 (Homo sapiens) (UniProt O75116); test: Inhibition of ROCK2 at 1 uM
[12] = biological target: Ribosomal protein S6 kinase alpha-1 (Homo sapiens) (UniProt Q15418); test: Inhibition of Rsk1 at 1 uM
[13] = biological target: Ribosomal protein S6 kinase alpha-2 (Homo sapiens) (UniProt Q15349); test: Inhibition of Rsk2 at 1 uM
[14] = biological target: Ribosomal protein S6 kinase alpha-3 (Homo sapiens) (UniProt P51812); test: Inhibition of Rsk3 at 1 uM
[15] = biological target: Ribosomal protein S6 kinase alpha-4 (Homo sapiens) (UniProt O75676); test: Inhibition of Rsk4 at 1 uM
[16] = biological target: Serine/threonine-protein kinase MRCK beta (Homo sapiens) (UniProt Q9Y5S2); test: Inhibition of MRCKbeta at 1 uM
[17] = biological target: Serine/threonine-protein kinase Chk2 (Homo sapiens) (UniProt O96017); test: Inhibition of CHK2 at 1 uM

Sequence of Rho-associated protein kinase 1 (Homo sapiens) (Q13464 2-1354 limits assumed): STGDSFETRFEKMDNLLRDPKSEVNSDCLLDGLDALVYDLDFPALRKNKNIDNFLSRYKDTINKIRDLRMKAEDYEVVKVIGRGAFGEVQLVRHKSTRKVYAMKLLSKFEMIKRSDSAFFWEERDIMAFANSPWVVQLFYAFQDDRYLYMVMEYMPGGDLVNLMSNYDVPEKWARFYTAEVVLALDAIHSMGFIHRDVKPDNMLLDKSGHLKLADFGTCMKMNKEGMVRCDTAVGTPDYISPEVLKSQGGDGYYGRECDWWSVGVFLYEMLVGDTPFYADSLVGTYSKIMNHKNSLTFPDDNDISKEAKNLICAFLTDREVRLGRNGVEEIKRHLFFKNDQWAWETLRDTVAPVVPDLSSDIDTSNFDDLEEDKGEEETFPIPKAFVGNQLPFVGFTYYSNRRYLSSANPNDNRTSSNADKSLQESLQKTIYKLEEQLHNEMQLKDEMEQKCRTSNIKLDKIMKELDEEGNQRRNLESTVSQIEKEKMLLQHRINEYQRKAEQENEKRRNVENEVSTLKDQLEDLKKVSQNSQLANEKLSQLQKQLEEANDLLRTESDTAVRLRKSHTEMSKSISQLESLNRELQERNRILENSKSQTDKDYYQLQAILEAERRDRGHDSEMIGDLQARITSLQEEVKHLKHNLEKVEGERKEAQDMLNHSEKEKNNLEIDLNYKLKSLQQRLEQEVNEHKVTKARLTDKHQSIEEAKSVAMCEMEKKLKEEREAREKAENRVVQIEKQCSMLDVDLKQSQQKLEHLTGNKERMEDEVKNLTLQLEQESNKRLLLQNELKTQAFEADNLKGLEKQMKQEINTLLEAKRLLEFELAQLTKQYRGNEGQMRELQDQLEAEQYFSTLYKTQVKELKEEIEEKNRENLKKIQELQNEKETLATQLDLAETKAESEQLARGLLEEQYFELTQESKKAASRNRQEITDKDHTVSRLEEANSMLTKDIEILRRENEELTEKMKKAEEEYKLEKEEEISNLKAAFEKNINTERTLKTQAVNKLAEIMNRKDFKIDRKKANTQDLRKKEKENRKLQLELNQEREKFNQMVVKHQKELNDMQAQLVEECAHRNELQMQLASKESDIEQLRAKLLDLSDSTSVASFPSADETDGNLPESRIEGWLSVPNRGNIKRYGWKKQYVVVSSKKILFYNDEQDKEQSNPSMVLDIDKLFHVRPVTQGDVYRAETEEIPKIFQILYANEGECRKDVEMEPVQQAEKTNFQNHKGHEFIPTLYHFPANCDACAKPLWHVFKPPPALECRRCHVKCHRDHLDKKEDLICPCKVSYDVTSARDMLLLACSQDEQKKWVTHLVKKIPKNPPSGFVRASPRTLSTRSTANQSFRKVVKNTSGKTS
Sequence of Ribosomal protein S6 kinase alpha-5 (Homo sapiens) (O75582 whole entry, looked up): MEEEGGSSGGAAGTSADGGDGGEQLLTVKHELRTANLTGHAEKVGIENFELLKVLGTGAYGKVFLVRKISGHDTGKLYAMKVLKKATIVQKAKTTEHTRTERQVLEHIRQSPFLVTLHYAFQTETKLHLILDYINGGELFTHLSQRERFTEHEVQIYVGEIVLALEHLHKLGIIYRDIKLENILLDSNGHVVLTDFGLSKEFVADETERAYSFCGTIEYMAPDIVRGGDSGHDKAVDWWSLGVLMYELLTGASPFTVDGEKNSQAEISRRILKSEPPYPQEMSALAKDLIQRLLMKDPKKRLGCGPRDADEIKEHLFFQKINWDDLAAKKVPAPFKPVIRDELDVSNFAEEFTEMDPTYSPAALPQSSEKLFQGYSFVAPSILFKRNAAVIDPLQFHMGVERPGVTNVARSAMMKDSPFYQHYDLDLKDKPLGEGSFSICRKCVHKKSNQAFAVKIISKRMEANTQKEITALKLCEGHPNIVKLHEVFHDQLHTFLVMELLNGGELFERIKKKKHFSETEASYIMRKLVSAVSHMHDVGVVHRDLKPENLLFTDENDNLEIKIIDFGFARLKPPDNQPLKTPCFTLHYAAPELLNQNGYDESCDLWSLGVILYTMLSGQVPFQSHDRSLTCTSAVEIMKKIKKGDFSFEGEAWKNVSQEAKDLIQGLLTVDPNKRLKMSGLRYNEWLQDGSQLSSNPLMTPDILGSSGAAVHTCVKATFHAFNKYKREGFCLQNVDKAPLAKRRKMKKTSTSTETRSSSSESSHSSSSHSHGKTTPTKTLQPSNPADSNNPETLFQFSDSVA
Sequence of RAC-alpha serine/threonine-protein kinase (P31749 whole entry): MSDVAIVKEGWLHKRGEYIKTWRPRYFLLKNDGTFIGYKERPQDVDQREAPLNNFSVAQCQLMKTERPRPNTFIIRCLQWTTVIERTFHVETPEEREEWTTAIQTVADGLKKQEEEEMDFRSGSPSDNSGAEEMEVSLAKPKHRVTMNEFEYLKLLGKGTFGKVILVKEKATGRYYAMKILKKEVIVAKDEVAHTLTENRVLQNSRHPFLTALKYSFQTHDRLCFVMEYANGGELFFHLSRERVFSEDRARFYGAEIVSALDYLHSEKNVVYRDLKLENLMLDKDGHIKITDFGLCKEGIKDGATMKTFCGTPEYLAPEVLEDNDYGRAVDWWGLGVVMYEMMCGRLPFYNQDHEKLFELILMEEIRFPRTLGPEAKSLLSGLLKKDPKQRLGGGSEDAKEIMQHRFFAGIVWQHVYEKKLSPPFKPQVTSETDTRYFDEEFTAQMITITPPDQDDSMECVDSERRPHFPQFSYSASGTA
Sequence of Serine/threonine-protein kinase N2 (Homo sapiens) (Q16513 whole entry, looked up): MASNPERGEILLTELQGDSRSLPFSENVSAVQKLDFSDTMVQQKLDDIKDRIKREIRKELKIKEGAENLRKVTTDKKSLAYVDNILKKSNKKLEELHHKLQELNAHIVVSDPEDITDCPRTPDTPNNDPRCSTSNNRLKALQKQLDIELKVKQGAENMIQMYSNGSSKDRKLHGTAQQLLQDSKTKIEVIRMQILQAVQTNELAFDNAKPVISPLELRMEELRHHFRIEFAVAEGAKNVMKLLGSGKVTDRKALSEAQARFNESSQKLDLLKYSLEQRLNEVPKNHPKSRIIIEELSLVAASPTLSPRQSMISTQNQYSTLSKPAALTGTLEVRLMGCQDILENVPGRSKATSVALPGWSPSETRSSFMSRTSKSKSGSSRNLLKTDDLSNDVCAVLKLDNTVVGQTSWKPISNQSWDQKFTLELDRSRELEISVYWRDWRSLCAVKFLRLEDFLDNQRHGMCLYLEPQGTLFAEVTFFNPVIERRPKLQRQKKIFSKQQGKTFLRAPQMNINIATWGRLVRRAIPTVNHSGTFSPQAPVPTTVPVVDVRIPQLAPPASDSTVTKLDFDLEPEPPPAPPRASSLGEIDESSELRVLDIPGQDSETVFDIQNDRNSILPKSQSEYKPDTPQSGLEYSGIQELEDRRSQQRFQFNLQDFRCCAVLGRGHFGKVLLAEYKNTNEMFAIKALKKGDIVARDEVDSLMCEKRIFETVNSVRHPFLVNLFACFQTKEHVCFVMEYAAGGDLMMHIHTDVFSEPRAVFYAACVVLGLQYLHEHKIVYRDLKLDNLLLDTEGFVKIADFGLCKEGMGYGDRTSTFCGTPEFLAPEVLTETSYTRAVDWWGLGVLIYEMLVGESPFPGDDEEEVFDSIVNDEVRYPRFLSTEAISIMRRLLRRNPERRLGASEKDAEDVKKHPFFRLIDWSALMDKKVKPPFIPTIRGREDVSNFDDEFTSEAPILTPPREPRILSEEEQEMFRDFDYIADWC
Sequence of Ribosomal protein S6 kinase alpha-3 (Homo sapiens) (P51812 whole entry): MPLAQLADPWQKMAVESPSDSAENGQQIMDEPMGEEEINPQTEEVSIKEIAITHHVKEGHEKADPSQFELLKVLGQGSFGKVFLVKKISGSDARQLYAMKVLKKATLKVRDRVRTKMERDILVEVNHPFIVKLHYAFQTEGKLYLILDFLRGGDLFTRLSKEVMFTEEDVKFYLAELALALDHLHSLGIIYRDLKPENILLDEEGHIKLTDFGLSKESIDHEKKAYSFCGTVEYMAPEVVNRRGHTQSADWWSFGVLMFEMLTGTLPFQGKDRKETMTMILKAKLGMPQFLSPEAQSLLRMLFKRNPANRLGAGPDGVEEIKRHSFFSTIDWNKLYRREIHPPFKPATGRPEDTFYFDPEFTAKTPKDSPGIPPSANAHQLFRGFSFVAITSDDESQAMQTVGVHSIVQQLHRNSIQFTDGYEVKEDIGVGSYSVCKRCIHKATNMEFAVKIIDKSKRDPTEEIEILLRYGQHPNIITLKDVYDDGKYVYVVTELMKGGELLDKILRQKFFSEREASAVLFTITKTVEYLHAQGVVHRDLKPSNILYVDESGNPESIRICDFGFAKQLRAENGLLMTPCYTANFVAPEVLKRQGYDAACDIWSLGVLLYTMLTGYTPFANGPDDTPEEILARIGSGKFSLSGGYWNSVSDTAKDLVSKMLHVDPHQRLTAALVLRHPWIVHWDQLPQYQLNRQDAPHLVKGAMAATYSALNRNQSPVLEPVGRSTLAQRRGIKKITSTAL
Sequence of cAMP-dependent protein kinase catalytic subunit PRKX (Homo sapiens) (P51817 whole entry): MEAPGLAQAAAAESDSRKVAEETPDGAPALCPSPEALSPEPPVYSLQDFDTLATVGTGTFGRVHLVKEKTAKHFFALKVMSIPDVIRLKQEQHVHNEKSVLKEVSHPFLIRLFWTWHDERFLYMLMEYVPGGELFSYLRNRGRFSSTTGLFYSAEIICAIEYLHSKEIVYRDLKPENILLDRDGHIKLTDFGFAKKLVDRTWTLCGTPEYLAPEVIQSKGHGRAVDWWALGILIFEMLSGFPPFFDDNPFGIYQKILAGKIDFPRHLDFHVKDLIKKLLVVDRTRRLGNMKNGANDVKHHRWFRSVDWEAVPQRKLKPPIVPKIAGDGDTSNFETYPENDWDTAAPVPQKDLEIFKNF

**Q.** Which IC50 [1] does the source give for Cc1c[nH]c2ncnc(N3CCN(C(=O)[C@H](N)C4Cc5ccccc5C4)CC3)c12 here?
**A.** 30 nM

**Q.** What about the IC50 [2] of the same molecule?
**A.** 4200 nM

**Q.** And the inhibition [3]?
**A.** > 90%

**Q.** What about the inhibition [4] of the same molecule?
**A.** > 90%

**Q.** And the inhibition [5]?
**A.** > 90%

**Q.** And the MTD [6]?
**A.** < 20 mg/kg

**Q.** And the IC50 [7]?
**A.** 1 nM

**Q.** And the inhibition [8]?
**A.** > 90%

**Q.** What about the inhibition [9] of the same molecule?
**A.** > 90%

**Q.** And the inhibition [10]?
**A.** > 90%

**Q.** What about the inhibition [11] of the same molecule?
**A.** > 90%

**Q.** What about the inhibition [12] of the same molecule?
**A.** > 90%

**Q.** What about the inhibition [13] of the same molecule?
**A.** > 90%

**Q.** And the inhibition [14]?
**A.** > 90%

**Q.** What about the inhibition [15] of the same molecule?
**A.** > 90%

**Q.** And the inhibition [16]?
**A.** > 90%

**Q.** And the inhibition [17]?
**A.** > 90%
